Where a name gives a salt, the structure may show the parent alone.
Legend:
IL-12 [1] = assay: IL-12 production from macrophages induced through administration (Example 9, Table 1); format: in vivo, DBA/2 mice; conditions: LPS 100 ng/ml, IFNγ 100 units/ml
Description: (§1) The amount of IL-12 was determined through bioassay using cells of human T cell strain 2D6 (J. Leukocyte Biology, vol. 61, p. 346, 1997).
(§2) 2D6 cells which had been incubated in an RPMI 1640 medium containing 500 pg/ml of recombinant human IL-12, 50 μM of 2-mercaptoethanol and 10% FCS (fetal calf serum) were moved to a tube, and centrifugally washed three times with the above-mentioned medium without IL-12 and cell density was adjusted to 1×10^5/ml. The cell suspension was added in an amount of 100 μl each to a 96-well flat bottom plate containing a sample serially diluted in advance with an RPMI 1640 medium containing 50 μM of 2-mercaptoethanol and 10% FCS in an amount of 100 μl each. Subsequently, the mixture was charged into a 5% […] incubator of 37° C., and incubated for 48 hours. For final 6 hours, ^3H-TdR was pulsed (a substance adjusted to 370 kBq/ml in an RPMI 1640 medium containing 50 μM of 2-mercaptoethanol and 10% FCS was added in an amount of 50 μl each). The cells a harvested, and the radioactivity was measured using a β counter (Matrix 96, supplied by Packard).
(§3) The increase in the amounts of oxidative macrophages can easily be determined visually from the fact that almost no reaction product with monochlorobimane is observed, namely, a gray or blue image is provided, and the increase in the amounts of reductive macrophages from the fact that a red or yellow image is provided respectively. […] Meanwhile, the same examination was conducted by harvesting peritoneal exudate cells after 20 hours of the administration of 2 mg of N-acetylcystine (NAC).
(§4) Thus, the peritoneal exudate adherent cells were incubated in the following manner, and the amounts of NO and IL-12 produced in the culture supernatant were measured. With respect to the amount of IL-6, the amount of IL-6 produced spontaneously in the absence of a stimulator was measured.
(§5) Cells: The peritoneal exudate adherent cells obtained by the stimulation, namely, the macrophages were added to a 96-well microplate in an amount of 1×10^5 cells/200 μl each.
(§6) Medium: Phenol red-free RPMI 1640: 200 μl/well
(§7) LPS: Lipopolysaccharide (made by Sigma Co.) (origin: E. coli) 100 ng/ml

IL-6 [2] = assay: IL-6 production from macrophages induced through administration (Example 9, Table 1); format: in vivo, DBA/2 mice; parameters: concentration or dose not given beside the values; conditions: produced spontaneously in the absence of a stimulator
Description: (§8) A stimulator was added to 1×10^6 MΦ, and the incubation was conducted at 37° C. for 2 days in a CO2 incubator. After centrifugation, the culture supernatant was collected.
(§9) The amount of IL-6 was determined using IL-6 dependent mouse hybridoma MH60 cells (J. Eur. Immunol., vol. 18, p. 951, 1988). One hundred microliters of the culture supernatant were added to 100 μl of the MH60 cell suspension adjusted to 1×10^5 cells/ml in a 10% FCS-containing RPMI medium, and the mixed solution was incubated at 37° C. for 2 days in a CO2 incubator. Subsequently, 10 μl of MTT (supplied by Sigma Co.) solution adjusted to a concentration of 5 mg/ml in the same medium were added thereto, and the reaction was conducted at 37° C. for 5 hours. After the completion of the reaction, the centrifugation was conducted. The supernatant (160 μl) was removed, and 100 μl of a mixture of hydrochloric acid and propanol were added to the residue. The suspension was conducted using a pipetman to dissolve the cells. Immediately after the dissolution, an absorbance of 570 nm was measured with an immunometer (supplied by Bio-Rad).
as §3, with “This was clarified by harvesting peritoneal exudate cells 20 hours after the completion of the administration, adhering the cells to the plastic surface, then reacting the cells with 10 μM of monochlorobimane at 37° C. for 30 minutes, and analyzing the reaction product with ACAS. The” for “The”
as §4, §5, §6

[3] = system: peritoneal exudate cells (macrophages); assay: Induction of oxidative or reductive macrophages by administration, monochlorobimane/ACAS (Example 9); format: in vivo, DBA/2 mice; conditions: Day 1 and Day 2, cells harvested 20 hours later; 20 μg (NAC-OMe)2 or (NAC)2, 10 μg acetylgliotoxin, 2 mg NAC intraperitoneally; 40 μg dexamethasone subcutaneously
Description: as §3, with “This was clarified by harvesting peritoneal exudate cells 20 hours after the completion of the administration, adhering the cells to the plastic surface, then reacting the cells with 10 μM of monochlorobimane at 37° C. for 30 minutes, and analyzing the reaction product with ACAS. The” for “The”

NO [4] = assay: NO production from macrophages induced through administration (Example 9, Table 1); format: in vivo, DBA/2 mice; conditions: LPS 100 ng/ml, IFNγ 100 units/ml
Description: (§10) A stimulator was added to 1×10^5 MΦ, and the incubation was conducted at 37° C. for 2 days in a CO2 incubator. After the completion of the centrifugation, the culture supernatant was collected.
(§11) One hundred microliters of a Griess-Romijn reagent (supplied by Waco Pure Chemical Industries, Ltd.) adjusted to a concentration of 50 mg/ml in distilled water were added to 100 μl of the culture supernatant, and the reaction was conducted at room temperature for 15 minutes. After the completion of reaction, an absorbance of 540 nm was measured. NaNO2 was used as a standard.
as §3, with “This was clarified by harvesting peritoneal exudate cells 20 hours after the completion of the administration, adhering the cells to the plastic surface, then reacting the cells with 10 μM of monochlorobimane at 37° C. for 30 minutes, and analyzing the reaction product with ACAS. The” for “The”
as §4, §5, §6, §7

IL-12 [5] = assay: Suppression of IL-12 production of reductive MΦ by DEM or IL-4 (Example 7); format: cell-based, mouse
Description: as §1, §2
As mentioned above, IL-12 was produced only in reductive MΦ having the high GSH content in cells. It was examined whether this production is suppressed by converting MΦ to oxidative MΦ. That is, it was analyzed whether the IL-12 production is suppressed by exposing lentinan-induced MΦ with DEM.
(§12) IL-4 is a cytokine which acts on MΦ suppressively. IL-4 is considered to have an opposite function to IL-12 in the Th1/Th2 balance as well. Accordingly, it was examined whether IL-4 acts suppressively on the IL-12 production by reductive MΦ.

IL-12 [6] = assay: IL-12 production by MΦ induced by intraperitoneal injection of substances (Example 7); format: in vivo, mouse; conditions: MΦ induced by intraperitoneal injection of the substance; stimulation with LPS and IFNγ
Description: as §1, §2
It was examined whether there is a difference in the IL-12 production between LNT-induced MΦ and LPS-induced MΦ. […] Next, the same analysis was conducted using MΦ induced by intraperitoneally injecting substances for changing the GSH content in cells.

IL-6 [7] = assay: IL-6 production of MΦ pretreated with IL-4 (Example 7); format: cell-based, mouse
Description: as §8, §9
Further, MΦ of which the GSH content in cells was increased by the stimulation with GSH-OEt and MΦ of which the GSH content in cells was decreased by the stimulation of DEM were pretreated with IL-4, and IFNγ was exposed thereon to induce the IL-6 production. […]

NO [8] = assay: NO production of MΦ pretreated with IL-4 (Example 7); format: cell-based, mouse
Description: as §10, §11
Reductive MΦ increases the NO production by the IFNγ stimulation in comparison with oxidative MΦ, and rather suppresses the IL-6 production. IFNγ is known to be a cytokine produced from Th1 cells. […] Further, MΦ of which the GSH content in cells was increased by the stimulation with GSH-OEt and MΦ of which the GSH content in cells was decreased by the stimulation with DEM were pretreated with IL-4, and IFNγ thereafter and LPS stimulation was carried out to induce NO production.

[9] = system: reductive glutathione in MΦ; assay: Content of reductive glutathione in MΦ treated with IL-4, ACAS image analysis (Example 7); format: cell-based, mouse; conditions: image analysis by ACAS
Description: Three-hundred microliters of a cell suspension adjusted concentration of 3×10^5 cells/ml in an RPMI 1640 medium (phenol red-free) were charged into a chambered coverglass (#136439, supplied by Nunc), and incubated at 37° C. for 2 hours using a CO2 incubator. The culture solution was washed with the medium, and 300 μl of monochlorobimane (supplied by Molecular Plobe) adjusted to 10 μM in the same medium were added thereto. The mixture was charged into a CO2 incubator of 37° C., and the reaction was conducted for 30 minutes. The fluorescent intensity was measured with ACAS. In ACAS, a UV laser was used.
as §12

CC(=O)O[C@H]1C=CC=C2C[C@]34SS[C@](CO)(C(=O)N3[C@@H]21)N(C)C4=O [Acetylgliotoxin]
IL-12, amount produced relative to that of control group (IL-12 [1]): 14% | IL-6, amount produced relative to that of control group (IL-6 [2]): 450% | type of macrophages induced (monochlorobimane, ACAS) [3]: Oxidative macrophages were induced | NO, amount produced relative to that of control group (NO [4]): 22%

CCOC(=O)/C=C\C(=O)OCC [DEM, diethyl maleate, reference compound]
IL-12 production from lentinan-induced MΦ with the addition of DEM (IL-12 [5]; without DEM 828 pg/ml): 0 pg/mL | IL-12 production (IL-12 [6]): produced only in MΦ derived from GSH-OEt administered mice

C[C@@H]1C[C@H]2[C@@H]3CCC4=CC(=O)C=C[C@]4(C)[C@@]3(F)[C@@H](O)C[C@]2(C)[C@@]1(O)C(=O)CO [Dexamethasone, dexamethasone, reference compound]
IL-12, amount produced relative to that of control group (IL-12 [1]): 5% | IL-6, amount produced relative to that of control group (IL-6 [2]): 1020% | NO, amount produced relative to that of control group (NO [4]): 45%

B1: IL-4: interleukin 4, a cytokine which acts on MΦ suppressively; typical Th2 cytokine (protein, UniProt P05112 25-153, looked up)
Interleukin-4: HKCDITLQEIIKTLNSLTEQKTLCTELTVTDIFAASKNTTEKETFCRAATVLRQFYSHHEKDTRCLGATAQQFHRHKQLIRFLKRLDRNLWGLAGLNSCPVKEANQSTLENFLERLKTIMREKYSKCSS
IL-6 production of GSH-OEt-stimulated and DEM-stimulated MΦ pretreated with IL-4 (IL-6 [7]; IFNγ exposure, in comparison with IL-4-untreated MΦ): increased | IL-6 production with IFNγ after pretreatment with IL-4 (IL-6 [7]; resident MΦ, LPS-induced MΦ and LNT-induced MΦ): markedly increased | NO production of GSH-OEt-stimulated and DEM-stimulated MΦ pretreated with IL-4 (NO [8]; IFNγ and LPS stimulation, both subsets of MΦ): remarkably suppressed | IFNγ NO production from MΦ pretreated with IL-4 in comparison with untreated MΦ (NO [8]; IFNγ stimulation): significantly suppressed | IL-12 production by GSH-OEt administered mouse MΦ after pretreatment with IL-4 (IL-12 [5]; without IL-4 490 pg/ml): 258 pg/mL | IL-12 production by LNT-induced MΦ after pretreatment with IL-4 (IL-12 [5]; without IL-4 1,580 pg/ml): 370 pg/mL | content of reductive glutathione in MΦ [9]: markedly decreases
